Experimental data as given in US8940310B2, “Methods of treatment using TLR7 and/or TLR9 inhibitors” (Dynavax Technologies Corporation, priority 2010, dated 2015).
Marks after values point to notes of the source that are not given here.

Assays:
[1] = Monomer and tetramer formation of IRPs, size-exclusion HPLC; type: physicochemical; conditions: 100 mg/mL in PBS and 0.5M KCl, room temperature, three weeks
Protocol: Solutions were prepared of the by mixing 100 mg/mL of the IRP sequences in PBS and 0.5M KCl and storing at room temperature for three to five weeks. The solutions were subsequently analyzed by size-exclusion HPLC.

[2] = High dosages of IRPs in rats (weight, deaths, histology); type: in vivo, Sprague Dawley rats; conditions: rat; for Heart: Cell Vacuolation, number of animals / Heart: Hemorrhage, number of animals / Heart: Mononuclear Cell Infiltration, number of animals / Heart: Necrosis, number of animals / Heart: No significant changes, number of animals / Liver: Liver changes, number of animals / Liver: Mixed cell infiltration, number of animals / Liver: Necrosis, number of animals / Liver: No significant changes, number of animals / Liver: Vacuolation, number of animals / Right Kidney: Hydronephrosis, number of animals / Right Kidney: Mineralization, number of animals / Right Kidney: Necrosis, number of animals / Right Kidney: No significant changes, number of animals / Right Kidney: Tubular basophilia, number of animals / Right Kidney: Tubular changes, number of animals: 6 animals
[3] = High dosages of IRPs in mice (weight, histology); type: in vivo, BALB/c mice; conditions: for Liver: Liver changes, number of animals / Liver: Mixed cell infiltration, number of animals / Liver: No significan changes, number of animals / Right Kidney: No significant changes, number of animals / Right Kidney: Tubular basophilia, number of animals / Right Kidney: Tubular changes, number of animals: 6 animals; for Heart: No significant changes, number of animals: tissue missing in two animals
Method in brief: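 BALB/c mice (n=5 per group) received IRPs or saline subcutaneously at 4, 20, 50 or 100 mg/kg on days 1, 4, 7 and 10. Body weight tracked over the study; at termination organ weights, tissue oligonucleotide levels and liver, kidney and heart histology were assessed.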

human B-cells = experiment: Human B-cells cultured in the presence of IRPs, IL-6
[4] = 10 mg/kg, 0 = no change to 4 = severe
[5] = 90 mg/kg, 0 = no change to 4 = severe
[6] = 50 mg/kg, 0 = no change to 4 = severe
[7] = 100 mg/kg, 0 = no change to 4 = severe

5′-TGCTCCTGGAGGGGTTGT-3′ (DNA, backbone not given here) [SEQ ID NO:42]
fraction in monomer form [1]: 54.01%
fraction in tetramer form [1]: 45.99%
organ weight of the liver, heart, kidney, or spleen ([2]; 10 mg/kg or 100 mg/kg SC days 0, 3, 6, 9): no significant difference
Heart: Cell Vacuolation, number of animals ([2]; 10 mg/kg): 0
Heart: Hemorrhage, number of animals ([2]; 10 mg/kg): 0
Heart: Mononuclear Cell Infiltration, number of animals ([2]; 10 mg/kg): 1
Heart: Necrosis, number of animals ([2]; 10 mg/kg): 0
Heart: No significant changes, number of animals ([2]; 10 mg/kg): 5
Liver: Liver changes, number of animals ([2]; 10 mg/kg): 1
Liver: Mixed cell infiltration, number of animals ([2]; 10 mg/kg): 2
Liver: Necrosis, number of animals ([2]; 10 mg/kg): 0
Liver: No significant changes, number of animals ([2]; 10 mg/kg): 3
Liver: Vacuolation, number of animals ([2]; 10 mg/kg): 0
Right Kidney: Hydronephrosis, number of animals ([2]; 10 mg/kg): 0
Right Kidney: Mineralization, number of animals ([2]; 10 mg/kg): 3
Right Kidney: Necrosis, number of animals ([2]; 10 mg/kg): 0
Right Kidney: No significant changes, number of animals ([2]; 10 mg/kg): 0
Right Kidney: Tubular basophilia, number of animals ([2]; 10 mg/kg): 0
Right Kidney: Tubular changes, number of animals ([2]; 10 mg/kg): 6
Heart: Mononuclear Cell Infiltration, mean severity score [2, 4]: 2.0
Liver: Liver changes, mean severity score [2, 4]: 1.0
Liver: Mixed cell infiltration, mean severity score [2, 4]: 1.5
Right Kidney: Mineralization, mean severity score [2, 4]: 2.0
Right Kidney: Tubular changes, mean severity score [2, 4]: 1.0
Kidney: tubular basophilia ([2]; 90 mg/kg): occurred
Liver: hepatocellular necrosis ([2]; 90 mg/kg): hepatocellular necrosis
Heart: Cell Vacuolation, number of animals ([2]; 90 mg/kg): 0
Heart: Hemorrhage, number of animals ([2]; 90 mg/kg): 0
Heart: Mononuclear Cell Infiltration, number of animals ([2]; 90 mg/kg): 0
Heart: Necrosis, number of animals ([2]; 90 mg/kg): 0
Heart: No significant changes, number of animals ([2]; 90 mg/kg): 6
Liver: Liver changes, number of animals ([2]; 90 mg/kg): 6
Liver: Mixed cell infiltration, number of animals ([2]; 90 mg/kg): 4
Liver: Necrosis, number of animals ([2]; 90 mg/kg): 1
Liver: No significant changes, number of animals ([2]; 90 mg/kg): 0
Liver: Vacuolation, number of animals ([2]; 90 mg/kg): 0
Right Kidney: Hydronephrosis, number of animals ([2]; 90 mg/kg): 0
Right Kidney: Mineralization, number of animals ([2]; 90 mg/kg): 1
Right Kidney: Necrosis, number of animals ([2]; 90 mg/kg): 0
Right Kidney: No significant changes, number of animals ([2]; 90 mg/kg): 0
Right Kidney: Tubular basophilia, number of animals ([2]; 90 mg/kg): 4
Right Kidney: Tubular changes, number of animals ([2]; 90 mg/kg): 6
Liver: Liver changes, mean severity score [2, 5]: 2.3
Liver: Mixed cell infiltration, mean severity score [2, 5]: 2.1
Liver: Necrosis, mean severity score [2, 5]: 3.5
Right Kidney: Mineralization, mean severity score [2, 5]: 1.0
Right Kidney: Tubular basophilia, mean severity score [2, 5]: 1.5
Right Kidney: Tubular changes, mean severity score [2, 5]: 2.0
Heart: Chronic inflammation, number of animals ([3]; 50 mg/kg): 1
Heart: Mineralization, number of animals ([3]; 50 mg/kg): 1
Heart: Chronic inflammation, mean severity score [3, 6]: 2.0
Heart: Mineralization, mean severity score [3, 6]: 3.0
Liver: Liver changes, mean severity score [3, 6]: 1.0
Liver: Mixed cell infiltration, mean severity score [3, 6]: 1.8
Right Kidney: Tubular changes, mean severity score [3, 6]: 1.0
Liver: Liver changes, number of animals ([3]; 50 mg/kg): 5
Liver: Mixed cell infiltration, number of animals ([3]; 50 mg/kg): 4
Liver: No significan changes, number of animals ([3]; 50 mg/kg): 0
Right Kidney: No significant changes, number of animals ([3]; 50 mg/kg): 1
Right Kidney: Tubular basophilia, number of animals ([3]; 50 mg/kg): 0
Right Kidney: Tubular changes, number of animals ([3]; 50 mg/kg): 5
Heart: No significant changes, number of animals ([3]; 50 mg/kg): 2**
Heart: Chronic inflammation, number of animals ([3]; 100 mg/kg): 0
Heart: Mineralization, number of animals ([3]; 100 mg/kg): 1
weight loss as % gain versus pre-dose ([3]; 100 mg/kg SC days 1, 4, 7, 10): but not SEQ ID NO:42 provoked weight loss
Heart: Mineralization, mean severity score [3, 7]: 2.0
Liver: Liver changes, mean severity score [3, 7]: 1.8
Liver: Mixed cell infiltration, mean severity score [3, 7]: 2.0
Right Kidney: Tubular changes, mean severity score [3, 7]: 1.0
Liver: Liver changes, number of animals ([3]; 100 mg/kg): 6
Liver: Mixed cell infiltration, number of animals ([3]; 100 mg/kg): 4
Liver: No significan changes, number of animals ([3]; 100 mg/kg): 0
Right Kidney: No significant changes, number of animals ([3]; 100 mg/kg): 0
Right Kidney: Tubular basophilia, number of animals ([3]; 100 mg/kg): 0
Right Kidney: Tubular changes, number of animals ([3]; 100 mg/kg): 6
Heart: No significant changes, number of animals ([3]; 100 mg/kg): 3**
Normalized IL-6 Response (Percentage of Positive Control) (human B-cells; Experiment # 1, Max Conc 4.0 uM): 13%
Normalized IL-6 Response (Percentage of Positive Control) (human B-cells; Experiment # 2, Max Conc 4.0 uM): 14%
Normalized IL-6 Response (Percentage of Positive Control) (human B-cells; Experiment # 3, Max Conc 4.0 uM): 5%
Normalized IL-6 Response (Percentage of Positive Control) (human B-cells; Experiment # 4, Max Conc 4.0 uM): 9%
Normalized IL-6 Response (Percentage of Positive Control) (human B-cells; Experiment # 5, Max Conc 4.0 uM): 10%
Normalized IL-6 Response (Percentage of Positive Control) (human B-cells; Experiment # 6, Max Conc 4.0 uM): 6%
Normalized IL-6 Response (Percentage of Positive Control) (human B-cells; Experiment # 7, Max Conc 4.0 uM): 9%
Normalized IL-6 Response (Percentage of Positive Control) (human B-cells; Experiment # 8, Max Conc 2.0 uM): 8%
Normalized IL-6 Response (Percentage of Positive Control) (human B-cells; Experiment # 9, Max Conc 2.0 uM): 6%
Normalized IL-6 Response (Percentage of Positive Control) (human B-cells; Experiment # 10, Max Conc 2.0 uM): 18%
Normalized IL-6 Response (Percentage of Positive Control) (human B-cells; Experiment # 11, Max Conc 2.0 uM): 10%
B-cell response as evidenced by IL-6 produced (human B-cells; human B-cells with IRP alone, 48 hours, FIGS. 1A-B): did not induce any B-cell response
